Data from PubChem BioAssay AID2060363 (Molecular Pharmacology Branch, DTP, NCI, 2025).

Test system: 156681-154-R-J1-PDC tumor spheroids, viability % test/control
Experiment: Anticancer human tumor 156681-154-R-J1-PDC patient-derived melanoma cell line growth inhibition [TAK]
Settings: spheroids with HUVEC and MSC; for IC50: curve of first compound; for viability, T/C: stronger effect = lower value
From the text: Combinatorial screen of targeted agents with TAK-243 and ipatasertib in multi-cell type tumor spheroids
A high-throughput screen of multi-cell type tumor spheroids was designed to identify active combinations of targeted small molecules and TAK-243 or ipatasertib. Complex spheroids include a stromal component modeled by human endothelial cells (HUVEC) and fibroblasts modeled by human mesenchymal stem cells (MSCs). The concentration ranges selected for each drug and investigational agent were based upon clinically achievable concentrations if the clinical Cmax of the agent was known.
Compounds. The drugs and investigational agents: TAK-243 (785004), ipatasertib (767898), everolimus (733504), selumetinib (741078), bortezomib (756655), trametinib (758246), ixazomib (758254), vemurafenib (761431), dabrafenib (764134), sapanisertib (764658), alpelisib (765974), and copanlisib (816437), were obtained from the National Cancer Institute (NCI) Developmental Therapeutics Program Chemical Repository. The FDA-approved anticancer drug set is available from the NCI Developmental Therapeutics Program. […] The stock solutions were prepared in dimethyl sulfoxide (DMSO, Sigma-Aldrich, St. Louis, MO, cat. D2650) at 800-fold the tested concentration and stored at -70 degrees C prior to their use. All drugs and investigational agents were tested over a range starting from a high concentration at or near the clinical Cmax and decreasing in half-log increments. If the clinical Cmax for an agent had not been determined, the highest concentration tested was 10 microM.
NCI60 Cell Culture. NCI60 cell lines were obtained from the NCI Developmental Therapeutics Program Tumor Repository. For each lot of cells, the Repository performed Applied Biosystems AmpFLSTR Identifiler testing with PCR amplification to confirm consistency with the published Identifier STR profile for each cell line. Cells were kept in continuous culture for no more than 20 passages. The optimal seeding densities for each of the cell lines at each time point assessed were determined prior to performing the concentration response studies. Briefly, the NCI60 human tumor lines were grown as monolayers in RPMI 1640 medium supplemented with 10% FBS and 2 mmol/L L-glutamine.
An additional 2 lines were from the NCI60 cell line panel including melanomas, MALME-3M and SK-MEL-2. Pooled donor human umbilical vein endothelial cells (HUVEC, Lonza, cat. CC-2519) and human mesenchymal stem cells (hMSC, Lonza, cat. PT-2501) were purchased from Lonza (Walkersville, MD).
PDMR cell lines were grown in complete medium (DC medium): Dulbecco's modified Eagle's medium (DMEM)/F12 supplemented with 5% fetal bovine serum (FBS), 2 mM L-glutamine, 100 U/mL penicillin and 100 µg/ml streptomycin, 0.4 µg/ml hydrocortisone, 10 ng/ml epidermal growth factor (EGF) recombinant human protein, 24 µg/mL adenine, and 0.1 mg/mL primocin. During culture from frozen stock vials, PDMR cells were cultured in the same medium containing 10 µM Y-27632 (see Table 3). The PDCs were cultured in complete DMEM/F12 media without 10 microM Y-27632 dihydrochloride for at least two passages prior to the screen. The pooled donor HUVEC and hMSC were cultured in endothelial cell growth medium 2 (PromoCell, Heidelberg, Germany, cat. C-22011) and mesenchymal stem cell growth medium 2 (PromoCell, cat. C-28009), respectively. For all experiments, HUVEC and hMSC were used at passages </=5.
For the pre-screen, cell seeding densities were determined from a titration spanning the range from 5,000 to 313 cells per well. The mct-spheroids including 60% malignant cells, 25% HUVEC and 15% MSC dispensed as a mixture into U-bottom Ultra-Low Attachment 384-well plates (Corning, NY)
High-throughput Drug Combination Screening.
Prior to their inoculation into 384-well plates, malignant cells, HUVEC, and hMSC were removed from T flasks using TrypLE express (Thermo Fisher Scientific, cat. 12605036) and harvested by centrifugation for 5 min at 233 x g. […]
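Also: spheroids exposed to compounds for 7 days before the endpoint.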

## COC1CC2CCC(C)C(O)(O2)C(=O)C(=O)N2CCCCC2C(=O)OC(C(C)CC2CCC(OCCO)C(OC)C2)CC(=O)C(C)C=C(C)C(O)C(OC)C(=O)C(C)CC(C)C=CC=CC=C1C (stereo not given) + CC(C)NCC(C(=O)N1CCN(c2ncnc3c2C(C)CC3O)CC1)c1ccc(Cl)cc1
Second compound 0.3 µM
  IC50: 29 nM
Second compound 0.949 µM
  IC50: 2.9 nM
Second compound 3 µM
  IC50: 0.525 nM
Second compound 9.49 µM
  IC50: < 0.316 nM
Second compound 30 µM
  IC50: < 0.316 nM
Second compound 0.3 µM, first compound 0.000316 µM
  viability, T/C: 80%
Second compound 0.3 µM, first compound 0.001 µM
  viability, T/C: 79.9%
Second compound 0.3 µM, first compound 0.00316 µM
  viability, T/C: 65.6%
Second compound 0.3 µM, first compound 0.01 µM
  viability, T/C: 55.7%
Second compound 0.3 µM, first compound 0.0316 µM
  viability, T/C: 51.8%
Second compound 0.3 µM, first compound 0.1 µM
  viability, T/C: 45.9%
Second compound 0.949 µM, first compound 0.000316 µM
  viability, T/C: 80.8%
Second compound 0.949 µM, first compound 0.001 µM
  viability, T/C: 65.2%
Second compound 0.949 µM, first compound 0.00316 µM
  viability, T/C: 48.4%
Second compound 0.949 µM, first compound 0.01 µM
  viability, T/C: 45.1%
Second compound 0.949 µM, first compound 0.0316 µM
  viability, T/C: 46.5%
Second compound 0.949 µM, first compound 0.1 µM
  viability, T/C: 40.7%
Second compound 3 µM, first compound 0.000316 µM
  viability, T/C: 51.8%
Second compound 3 µM, first compound 0.001 µM
  viability, T/C: 49.1%
Second compound 3 µM, first compound 0.00316 µM
  viability, T/C: 37.5%
Second compound 3 µM, first compound 0.01 µM
  viability, T/C: 32.5%
Second compound 3 µM, first compound 0.0316 µM
  viability, T/C: 28.6%
Second compound 3 µM, first compound 0.1 µM
  viability, T/C: 29.4%
Second compound 9.49 µM, first compound 0.000316 µM
  viability, T/C: 31.6%
Second compound 9.49 µM, first compound 0.001 µM
  viability, T/C: 28%
Second compound 9.49 µM, first compound 0.00316 µM
  viability, T/C: 21.2%
Second compound 9.49 µM, first compound 0.01 µM
  viability, T/C: 18.8%
Second compound 9.49 µM, first compound 0.0316 µM
  viability, T/C: 19.5%
Second compound 9.49 µM, first compound 0.1 µM
  viability, T/C: 17.4%
Second compound 30 µM, first compound 0.000316 µM
  viability, T/C: 15.9%
Second compound 30 µM, first compound 0.001 µM
  viability, T/C: 13.5%
Second compound 30 µM, first compound 0.00316 µM
  viability, T/C: 12.1%
Second compound 30 µM, first compound 0.01 µM
  viability, T/C: 8.24%
Second compound 30 µM, first compound 0.0316 µM
  viability, T/C: 9.33%
Second compound 30 µM, first compound 0.1 µM
  viability, T/C: 8.33%

## Cn1cnc2c(F)c(Nc3ccc(Br)cc3Cl)c(C(=O)NOCCO)cc21 + CC(C)NCC(C(=O)N1CCN(c2ncnc3c2C(C)CC3O)CC1)c1ccc(Cl)cc1
Second compound 0.3 µM
  IC50: 602 nM
Second compound 0.949 µM
  IC50: 493 nM
Second compound 3 µM
  IC50: 331 nM
Second compound 9.49 µM
  IC50: < 9.49 nM
Second compound 30 µM
  IC50: < 9.49 nM
Second compound 0.3 µM, first compound 0.00949 µM
  viability, T/C: 96.6%
Second compound 0.3 µM, first compound 0.03 µM
  viability, T/C: 97%
Second compound 0.3 µM, first compound 0.0949 µM
  viability, T/C: 83.8%
Second compound 0.3 µM, first compound 0.3 µM
  viability, T/C: 81.2%
Second compound 0.3 µM, first compound 0.949 µM
  viability, T/C: 30%
Second compound 0.3 µM, first compound 3 µM
  viability, T/C: 9.69%
Second compound 0.949 µM, first compound 0.00949 µM
  viability, T/C: 81.1%
Second compound 0.949 µM, first compound 0.03 µM
  viability, T/C: 78.3%
Second compound 0.949 µM, first compound 0.0949 µM
  viability, T/C: 86.2%
Second compound 0.949 µM, first compound 0.3 µM
  viability, T/C: 71.3%
Second compound 0.949 µM, first compound 0.949 µM
  viability, T/C: 21.4%
Second compound 0.949 µM, first compound 3 µM
  viability, T/C: 7.25%
Second compound 3 µM, first compound 0.00949 µM
  viability, T/C: 69.1%
Second compound 3 µM, first compound 0.03 µM
  viability, T/C: 73.4%
Second compound 3 µM, first compound 0.0949 µM
  viability, T/C: 68.6%
Second compound 3 µM, first compound 0.3 µM
  viability, T/C: 53.6%
Second compound 3 µM, first compound 0.949 µM
  viability, T/C: 13.1%
Second compound 3 µM, first compound 3 µM
  viability, T/C: 4.67%
Second compound 9.49 µM, first compound 0.00949 µM
  viability, T/C: 43.3%
Second compound 9.49 µM, first compound 0.03 µM
  viability, T/C: 44.8%
Second compound 9.49 µM, first compound 0.0949 µM
  viability, T/C: 36.6%
Second compound 9.49 µM, first compound 0.3 µM
  viability, T/C: 24.6%
Second compound 9.49 µM, first compound 0.949 µM
  viability, T/C: 7.73%
Second compound 9.49 µM, first compound 3 µM
  viability, T/C: 1.63%
Second compound 30 µM, first compound 0.00949 µM
  viability, T/C: 20.6%
Second compound 30 µM, first compound 0.03 µM
  viability, T/C: 17.8%
Second compound 30 µM, first compound 0.0949 µM
  viability, T/C: 15.7%
Second compound 30 µM, first compound 0.3 µM
  viability, T/C: 10.4%
Second compound 30 µM, first compound 0.949 µM
  viability, T/C: 2.66%
Second compound 30 µM, first compound 3 µM
  viability, T/C: 0.54%
